Entries after “also recorded” stand apart in the source; their conditions may differ.
What was measured:
R6/2 transgenic mice = assay: R6/2 model of Huntington's disease; assay type: in vivo, mouse
Procedure: FIG. 26A and FIG. 26B. Example 45 Compound (P7C3) Provides Therapeutic Benefit in Animal Model of Huntington's Disease. 40 female R6/2 mice were included in each of VEH (vehicle) and P7C3 (10 mg/kg P7C3 i.p. twice daily) groups, and treatment was begun at 6 weeks of age. […] All measurements were conducted blind to genotype and treatment group.
In one hypothesis, P7C3 (and its derivates) may enhance the formation of neurons in the mature hippocampus by preventing death rather than promoting proliferation of these cells. As such, P7C3 is “proneurogenic” by virtue of its neuroprotective activity. It is also possible that P7C3 (and its derivates) prevents cell death and promotes cell proliferation. It was evaluated whether P7C3 might provide therapeutic benefit in R6/2 mice. […] General condition score was determined by a 3 point scoring system that was conducted blind to genotype and treatment group (score of 0=fur looks groomed, normal posture (no hunch), clear eyes, alert; score of 1=fur beginning to stick up, slight hunch; score of 2=piloerection (fur sticking up), unkempt fur, hunch in back or neck area, crusty eyes). Death was monitored twice daily, and defined as either when animals were found dead, or when they were unable to right themselves after being placed on their backs with movement subsequently initiated by gentle prodding for 30 seconds. […]

[1] = system: hippocampal neurogenesis in the DG; assay: Comparison of P7C3 compounds and antidepressant drugs: DG BrdU labeling after i.c.v. infusion; assay type: in vivo, mouse; conditions: 10 μM i.c.v. for 7 days
Text: The neuroprotective efficacies of both P7C3 and P7C3-A20 were next compared to currently marketed antidepressant medications, using screening conditions identical to those by which P7C3 was originally discovered. This experiment was based on the antidepressant actions of P7C3 and P7C3-A20 characterized here, and the dependence on hippocampal neurogenesis for behavioral efficacy of some marketed antidepressant medications in mice.
Proneurogenic efficacies in the DG of P7C3 and P7C3A20 were compared to those of vehicle (artificial cerebrospinal fluid) and several marketed antidepressant compounds (Sigma-Aldrich, St. Louis, Mo.) according to established methods. In brief, mice were housed individually in cages without running wheels or any form of environmental enrichment, in order to create an environment predicted to have as low of a baseline level of hippocampal neurogenesis as possible. Compounds (10 μM, i.c.v.) were administered for 7 days via subcutaneously implanted Alzet osmotic minipumps connected to a cannula directed into the left lateral ventricle, with implantation day designated as day 0. Starting on day 1, mice also received daily injections of BrdU (50 mg/kg, i.p.) at 9 am daily, for 6 days. Twenty four hours after the sixth BrdU injection, mice were transcardially perfused as described above.

[2] = system: dentate gyrus of NPAS3-deficient mice; assay: NPAS3-deficient mice: neurogenesis, apoptosis, morphology and electrophysiology of the dentate gyrus; assay type: in vivo, mouse (npas3−/−)
Procedure: FIG. 14: Example 45 Compound has pro-neurogenic or neuroprotective efficacy in the dentate gyrus of NPAS3-deficient animals. Six 12 week old npas3^−/− mice were orally administered vehicle or Example 45 Compound (20 mg/kg/d) for 12 days, and also injected daily with BrdU (50 mg/kg). At the end of day 12, mice were sacrificed and tissue was stained for BrdU and doublecortin (DCX).
Apoptosis in NPAS3-deficient animals was inhibited by treatment with Example 45 Compound (20 mg/kg/d, p.o., for 12 days), whereas analogous treatment with vehicle alone had no effect. Images shown are representative of 10-12 sections evaluated per animal, with 3-5 […] male NPAS3-deficient mice per group.
Armed with these genotype- and region-specific deficits in both neuron morphology and electrophysiological activity, whether prolonged administration of Example 45 Compound might favorably repair either deficit in NPAS3-deficient animals was tested. […] Following oral gavage of pregnant female mice, 14 day embryos were recovered, dissected and processed by acetonitrile:water extraction so that Example 45 Compound levels could be measured in the embryonic brain. Daily administration of 20 mg/kg of Example 45 Compound to pregnant females yielded appreciable levels of the compound in the brain tissue of developing embryos. It was similarly observed that oral administration of the compound to lactating females led to delivery of Example 45 Compound to the brain tissue of weanling pups. […] Finally, it was observed that daily IP administration of Example 45 Compound to weaned pups at 20 mg/kg was sufficient to yield brain levels of Example 45 Compound at or above the level required to enhance adult neurogenesis.
Female mice heterozygous at the NPAS3 locus were mated to heterozygous males. Two weeks post-mating, females were given a daily oral gavage of either 20 mg/kg of Example 45 Compound or vehicle-only formula. Dosing was continued throughout the last trimester of pregnancy, as well as the two week post-natal period of lactation. Following weaning, pups were given a daily IP dose of either 20 mg/kg Example 45 Compound or vehicle control. At about 7 weeks of age, mice were switched to oral gavage delivery of the same dose of Example 45 Compound. When mice were 3 months of age they were sacrificed and brain tissue was dissected and subjected to either Golgi-Cox staining or electrophysiological recording. […] The corresponding electrophysiological deficit in CA1 region of the hippocampus, however, was not affected (FIG. 13B), underscoring the specificity of Example 45 Compound to improving functioning of the dentate gyrus in this animal model.
Recognizing that the reduced thickness of the granular layer of the dentate gyrus in NPAS3-deficient animals could be attributed to elevated levels of apoptosis of newborn hippocampal neural precursor cells, the effect of Example 45 Compound treatment on apoptosis in the hippocampus of NPAS3-deficient animals was examined through immunohistochemical staining of cleaved caspase 3 (CCSP3). […] It is thereby proposed that Example 45 Compound facilitated repair of the granular layer of the dentate gyrus in NPAS3-deficient mice by ameliorating a genotype-specific exacerbation of programmed cell death.

Structure (SMILES) | survival of R6/2 mice (R6/2 transgenic mice; 10 mg/kg i.p. twice daily from 6 weeks of age) | general condition score (R6/2 transgenic mice; at 14 weeks of age) | increase of DG neurogenesis (BrdU labeling) over vehicle [1] | brain level in embryos and weanling pups ([2]; 20 mg/kg daily oral to pregnant or lactating females, LC/MS) | thickness of hippocampal subfields ([2]; 20 mg/kg/d from embryonic day 14 until 3 months of age, npas3−/− mice) | cleaved caspase 3 (CCSP3) staining, apoptosis in the dentate gyrus ([2]; 20 mg/kg/d p.o. for 12 days, NPAS3-deficient mice) | dendritic arborization of dentate gyrus granular neurons (Golgi-Cox) ([2]; extended daily treatment 20 mg/kg/d, npas3−/− mice) | synaptic responses (fEPSP) in hippocampal slices ([2]; extended treatment, npas3−/− mice) | increase of neurogenesis (BrdU) in npas3−/− mice ([2]; oral 20 mg/kg/d for 12 days) | health of treated animals ([2]; prolonged administration 20 mg/kg, relative to vehicle-only controls)
OC(CNc1ccccc1)Cn1c2ccc(Br)cc2c2cc(Br)ccc21 (stereo not shown) [Example P7C3] | delays animal death by about three weeks | improved general condition score and appearance | about 100% | – | – | – | – | – | – | –
OC(CNc1ccccc1)Cn1c2ccc(Br)cc2c2cc(Br)ccc21 (stereo not shown) [Example 45 Compound] | – | – | – | ≥ 1350 nM | selectively increased the thickness of the dentate gyrus granular cell layer | significantly reduced CCSP3 staining in the dentate gyrus; also recorded: statistically significant reduction in CCSP3 staining; also recorded: inhibited | robustly repaired morphological deficits in the dendritic branching; also recorded: enhanced dendritic arborization | normalized synaptic responses in the dentate gyrus but not the CA1 region | roughly 4 fold | did not affect any aspect of the health of mothers, embryos, weanlings or young adult mice

From patent US10183011B2, “Anti-depression compounds” (Board of Regents of the University of Texas System, priority 2009, dated 2019)
